Experimental data: patent US20240374492A1, “A SUNSCREEN COMPOSITION COMPRISING AVOBENZONE AND A METHOD FOR PHOTOSTABILIZATION” (ISP Investments LLC, priority 2021, published 2024)

Experiment: Photostability of avobenzone in combination with solvents (UV absorbance profile before and after 10 MED radiation)
Type: physicochemical
Conditions: avobenzone with the solvent; for Stability of Avobenzone: 10 MED radiation, solar simulator, UV absorbance 290-400 nm on PMMA plates; for Stability of avobenzone-solvent combination (UV absorbance profile after 10 MED radiation vs initial, FIG. 1 to FIG. 6): before and after 10 MED radiation
From the text: 10 minimal erythemal dose (MED) is a quantified dose of radiation that is known for causing skin damage. UV screening agents will eventually breakdown into smaller molecule after prolonged exposure to UV radiation. This is a common, expected phenomenon however, some UV screening agents will degrade faster within the time a person is exposed to sunlight. If the UV screening agent degrades, it loses the ability to absorb UV radiations and eventually results in a lower absorption profile, that translate into a lower SPF value.
If the absorption profile of a specimen, prepared from a UV screening agent-solvent combination, measured after a predefined exposure of 10 MED radiation, reads similar to that of its initial readings, then the UV screening agent is said to be stable in that particular combination of solvent.
Method of testing photostability: For each test formulations prepared according to Table-1 to Table-7, 1.80 mg/cm^2 of samples were deposited on PMMA (polymethyl methacrylate) plates and spread evenly using finger cots. Three plates were prepared for each product. The initial UV absorbance profile of each slide was measured with a UV-VIS spectrophotometer in the wavelength range of 290-400 nm. Four readings were taken for each slide. The test slides were then exposed to 10 MED radiation using a Solar Light LS1000R3 solar simulator. The slides were then equilibrated at room temperature for 15 minutes, and the UV absorbance profile post radiation was measured. The readings were then plotted to correlate initial absorbance behavior of the specimens to that of post radiation. Any degradation of the UV screening agent will result in a lower absorbance readings compared to that of the initial absorbance profile.
FIG. 1 to FIG. 6 illustrate graphs plotted based on UV absorbance profile measured before and after an exposure of 10 MED radiation on test specimens comprising combination of avobenzone and solvents selected from Table-8.

Row | Compound | Stability of Avobenzone | Stability of avobenzone-solvent combination (UV absorbance profile after 10 MED radiation vs initial, FIG. 1 to FIG. 6)
1 | CC(C)(C)c1ccc(C(=O)OCc2ccccc2)cc1 [Benzyl 4-tert-Butylbenzoate] | not stable | highly instable
2 | O=C(OCCC1CCCCC1)c1ccccc1 [2-Cyclohexylethyl Benzoate] | not stable | 
3 | Cc1cccc(COC(=O)c2ccccc2)c1 [m-Methylbenzyl Benzoate] | not stable | 
4 | Cc1ccccc1C(=O)OC1CCCCC1 [Cyclohexyl o-toluate] | not stable | highly instable
5 | O=C(OCc1ccccc1)c1ccccc1 [Benzyl Benzoate] | stable | 
6 | CCc1ccc(C(=O)OCc2ccccc2)cc1 [Benzyl 4-Ethylbenzoate] | not stable | 
7 | Cc1ccccc1COC(=O)c1ccccc1 [o-Methylbenzyl Benzoate] | not stable | 
8 | CCC(=O)OCCc1ccccc1 [2-Phenylethyl Propionate] | not stable | 
9 | Cc1ccccc1C(=O)OCCc1ccccc1 [2-Phenylethyl o-toluate] | stable | stable
10 | CC(CCOC(=O)c1ccccc1)OC(=O)c1ccccc1 (stereo not drawn) [1,3-Butylene glycol Dibenzoate] | not stable | highly instable
11 | O=C(OC1CCCCC1)c1ccccc1 [Cyclohexyl Benzoate] | not stable | highly instable
12 | O=C(OCc1ccccc1)c1ccccc1O [Benzyl Salicylate] | not stable | 
13 | O=C(OCCc1ccccc1)c1ccccc1 [Phenethyl benzoate] | stable | stable
14 | CCN(CC)C(=O)c1cccc(C)c1 [N,N-Diethyl m-toluamide] | not stable | highly instable
15 | Cc1ccc(C(=O)OC(C)c2ccccc2)cc1 (stereo not drawn) [1-Phenylethyl p-toluate] | not stable | 
16 | O=C(OCCc1ccccc1)C1CCCCC1 [2-Phenylethyl Cyclohexanoate] | not stable | 
17 | CC(COC(=O)c1ccccc1)OC(=O)c1ccccc1 (stereo not drawn) [Propylene glycol Dibenzoate] | not stable | highly instable
18 | O=C(OCCCc1ccccc1)c1ccccc1 [3-Phenylpropyl Benzoate] | stable | 
19 | C12-C15 alkyl benzoate | not stable | highly instable
20 | CCCCCC(=O)OCCc1ccccc1 [2-Phenylethyl Hexanoate] | not stable | 
21 | Cc1cccc(C(=O)OCc2ccccc2)c1 [Benzyl m-toluate] | not stable | 
22 | Cc1ccccc1C(=O)OCc1ccccc1 [Benzyl o-toluate] | stable | stable
23 | CCC(OC(=O)c1ccccc1)c1ccccc1 (stereo not drawn) [1-Phenylpropyl Benzoate] | not stable | 
